Laboratory results published in patent publication US20110262561A1, “Protoilludance Norsesquiterpenoid Esters and Uses Thereof” (NATIONAL RESEARCH INSTITUTE OF CHINESE MEDICINE, priority 2010, published 2011).
Read-outs that look alike come from different tables or passages of the source.

Tests used:
MCF-7 = experiment: Alamar blue cytotoxicity assay on MCF-7 cancer cells; type: cell-based; conditions: for IC50: Homo sapiens, MCF7, alamar blue, 48 hours treatment
Protocol: (§1) The endothelial cells (human endothelial-like cells, Eahy926) and 4 cancer cell lines (MCF-7, H460, HT-29, and CEM) were derived from the American Type Culture Collection (ATCC) and were maintained in DMEM or RPMI medium (Life Technologies) supplemented with 2 mM L-glutamine and 10% heat-inactivated fetal bovine serum (FBS) (Life Technologies) under standard culture conditions. The cell viability and cell number were determined by the Trypan Blue dye-exclusion method.
(§2) The alamar blue (AB) assay (dye purchased from Biosource International, Nivelles, Belgium) was used to estimate cell viability in accordance with procedures previously described by Fatokun et al (Bone (2006) 39, 542-551). Briefly, cells were treated with various concentration of each of the test compounds (e.g., compounds of example 1.1) at 37° C. for 48 hours, and the medium in each well was then aspirated at the end of the treatment, 100 μL of fresh medium containing 10% v/v AB was then added to the control and the treated wells, respectively. Plates were then incubated at 37° C. for 6 hour prior to measuring the absorbance at 570 nm and at 600 nm wavelengths using a spectrophotometric plate reader (DYNEX Technologies, USA). Experimental data were normalized to control values. CH-205-A, K, L, O, and -P were effective on MCF-7 cells; CH-205-A, H, K, L, O, and -P were effective on H460 cells; CH-205-A and -P were effective on HT-29 cells and CH-205-A, H, N, and -O were effective on CEM cells.

H460 = experiment: Alamar blue cytotoxicity assay on H460 cancer cells; type: cell-based, human; conditions: for IC50: Homo sapiens, NCI-H460, alamar blue, 48 hours treatment
Protocol: as §1, §2

HT-29 = experiment: Alamar blue cytotoxicity assay on HT-29 cancer cells; type: cell-based; conditions: for IC50: Homo sapiens, HT-29, alamar blue, 48 hours treatment
Protocol: as §1, §2

CEM = experiment: Alamar blue cytotoxicity assay on CEM cancer cells; type: cell-based; conditions: for IC50: Homo sapiens, CCRF-CEM, alamar blue, 48 hours treatment
Protocol: as §1, §2

[1] = MTT cell viability of endothelial cells (ECs); type: cell-based, human; conditions: human, column head prints none, read-out: Cell viability IC50 (cytotoxicity concentration on ECs)
Protocol: as §1
(§3) Anti-angiogenic effects of CH-205 compounds were estimated by their inhibition on the growth of endothelial cells. The toxicity of CH-205 compounds to endothelial cells was estimated using MTT (3-(4,5-dimethy;thiazol-2-yl)-2,5-diphenyltetrazolium bromide, a tetrazole) assay. MTT assay is a standard colorimetric assay (an assay which measures changes in color) for measuring the activity of enzymes that reduce yellow MTT to formazan, giving a purple color. It is also used to determine cytotoxity of potential medicinal agents and other toxic materials, since those agents would result in cell toxicity and therefore metabolic dysfunction and therefore decreased performance in the assay. The cytotoxity concentrations of the CH-205 compounds measured in MTT test are all over 20 μM (Table 2), however, their effects on angiogenesis inhibition are in nM range, indicating the safety of these compounds (Table 3).

[2] = system: endothelial cells (human endothelial-like cells, Eahy926); experiment: MTT cell viability of endothelial cells (ECs); type: cell-based
Protocol: as §1, §3

endothelial cells (ECs) = experiment: In vitro antiangiogenesis on ECs (inhibition of endothelial cell growth); type: cell-based; conditions: Homo sapiens, read-out: In vitro antiangiogenesis IC50
Protocol: as §1, §3

[3] = system: H460 human lung cancer tumor xenograft; conditions: for tumor volume after sacrifice: control 1.743±0.129
Protocol: The established, transplantable, 5×10^6/200 μL H460 tumor cells were prepared in RPMI medium. The 200 μL of cell suspension was injected subcutaneously into right flank area of each mouse. The mice were randomized into vehicle control and drug treatment groups of four-six animals each when xenografts were palpable with a tumor size of 40 mm^3. Adminitration of the lead compounds or vehicle began on day 15 when the median tumor size was ranged from 75 to 80 mm^3. Tumor-bearing animals were randomized (five per group) prior to treatment. The candidate test drugs were intraperitoneal (IP) administered into with optimal dosage once every other day (48 hr apart) for 7 or 10 times. […] Solvent vehicle and cisplatin (5 mg/kg) were used to administrate, respectively, as io negative and positive controls. Two days after last administration of tested compounds, the animals were sacrificed. The tumor dimensions were measured every other day using a linear caliper and tumor volume is calculated using the equation V (mm^3)=a×b^2/2, where a is the largest diameter and b is the smallest diameter. Body weights are also recorded once weekly. Tumor is growth inhibition ratio (TGI) is calculated using the equation TGI=(1−(the mean treated tumor mass/mean control tumor mass))*100%.

Structure (SMILES)	effective on MCF-7 cells (MCF-7)	IC50 (MCF-7)	effective on H460 cells (H460)	IC50 (H460)	IC50 (HT-29)	IC50 (CEM)	IC50 ([1]; Eahy926 endothelial-like cells)	Cell viability (% of control) 1 μM [2]	Cell viability (% of control) 10 μM [2]	Cell viability (% of control) 50 μM [2]	Cell viability (% of control) 100 μM [2]	Cell viability (% of control) 250 μM [2]	Cell viability (% of control) 500 μM [2]	IC50 (endothelial cells (ECs); ECs)	further results
COc1cc(O)c(C(=O)O[C@@H]2C[C@@]3(C)C2=C(C=O)C=C2CC(C)(C)C[C@@H]23)c(C)c1Cl [CH-205-A]	effective	4.8 µM	effective	5.5 µM	4.6 µM	5.8 µM	24.1 µM	101.4 % of control	87.9 % of control	17.7 % of control	8.4 % of control	7.1 % of control	7.9 % of control		effective on HT-29 cells (HT-29): effective; effective on CEM cells (CEM): effective; IC50 (endothelial cells (ECs)): 0.0403 µM
COc1cc(O)c(C(=O)O[C@@H]2C[C@]3(C)C4[C@@H](O)C(C)(C)C[C@@]4(O)C=C(C=O)[C@]23O)c(C)c1Cl (stereo partly drawn) [CH-205-E, (2R,2a6,4aR,7R,7bR)-3-formyl-2,2a,4a,5,6,7,7a,7b-octahydro-2a,4a,7-trihydroxy-6,6,7b-trimethyl-1H-cyclobuta[e]inden-2-yl 3-chloro-6-hyd roxy-4-methoxy-2-methylbenzoate]		> 100 µM		> 100 µM	85.6 µM	49.6 µM	220 µM	93.5 % of control	98.6 % of control	80.8 % of control	63.7 % of control	32.1 % of control	7.4 % of control	0.023 µM	
Cc1c(Cl)c(O)cc(O)c1C(=O)O[C@@H]1C[C@]2(C)C3CC(C)(C)CC3C=C(CO)[C@]12O (stereo partly drawn) [CH-205-K, (2R,2aS,7bR)-2,2a,4a,5,6,7,7a,7b-octahydro-2a-hydroxy-3-(hydroxymethyl)-6,6,7b-trimethyl-1H-cyclobuta[e]inden-2-yl 3-chloro-4,6-dihydroxy-2-methylbenzoate]	effective	4.8 µM	effective	4.5 µM	56.7 µM	28.8 µM	21.4 µM	103.7 % of control	122.7 % of control	6.4 % of control	6.4 % of control	7.0 % of control	8.8 % of control	0.0032 µM	tumor volume after sacrifice ([3]; CH-205-K study, 4 mg/kg IP every other day, 7 times): 1.364±0.14 cm^3; Tumor growth inhibition ratio (TGI) ([3]; CH-205-K study, 4 mg/kg IP, 7 times): 21.74%; tumor volume after sacrifice ([3]; CH-205-K study, 20 mg/kg IP every other day, 7 times): 1.283±0.077 cm^3; Tumor growth inhibition ratio (TGI) ([3]; CH-205-K study, 20 mg/kg IP, 7 times): 26.38%; tumor volume after sacrifice ([3]; CH-205-K study, 40 mg/kg IP every other day, 7 times): 1.109±0.119 cm^3; Tumor growth inhibition ratio (TGI) ([3]; CH-205-K study, 40 mg/kg IP, 7 times): 36.38%; tumor volume after sacrifice ([3]; CH-205-K study, 80 mg/kg IP every other day, 7 times): 0.867±0.086 cm^3; Tumor growth inhibition ratio (TGI) ([3]; CH-205-K study, 80 mg/kg IP, 7 times): 50.29%; effect on body weight ([3]; mouse, in vivo): no different effect on body weight
Cc1cc(O)cc(O)c1C(=O)O[C@@H]1C[C@]2(C)C3CC(C)(C)CC3C=C(CO)[C@]12O (stereo partly drawn) [CH-205-L, (2R,2aS,7bR)-2,2a,4a,5,6,7,7a,7b-octahydro-2a-hydroxy-3-(hydroxymethyl)-6,6,7b-trimethyl-1H-cyclobuta[e]inden-2-yl 2,4-dihydroxy-6-methylbenzoate]	effective	8.3 µM	effective	5.1 µM	58.4 µM	41.2 µM	21.1 µM	93.2 % of control	118.8 % of control	6.5 % of control	6.4 % of control	6.5 % of control	9.8 % of control	0.0011 µM	
Cc1c(Cl)c(O)cc(O)c1C(=O)O[C@@H]1C[C@]2(C)[C@H]3CC(C)(C)C[C@@]3(O)C=C(C=O)[C@]12O [CH-205-N, (2R,2aS,4aR,7aR,7bR)-3-formyl-2,2a,4a,5,6,7,7a,7b-octahydro-2a,4a-dihydroxy-6,6,7b-trimethyl-1H-cyclobuta[e]inden-2-yl 3-chloro-4,6-dihydroxy-2-methylbenzoate]		> 100 µM		> 100 µM	32.1 µM	5.5 µM	270 µM	96.5 % of control	94.1 % of control	96.5 % of control	85.1 % of control	55.2 % of control	7.6 % of control	0.0035 µM	effective on CEM cells (CEM): effective
COc1cc(O)c(C(=O)O[C@@H]2C[C@]3(C)C4C(C=C(C=O)[C@]23O)CC(C)(C)[C@@H]4O)c(C)c1Cl (stereo partly drawn) [CH-205-P, (2R,2aS,7R,7bR)-3-formyl-2,2a,4a,5,6,7,7a,7b-octahydro-2a,7-dihydroxy-6,6,7b-trimethyl-1H-cyclobuta[e]inden-2-yl 3-chloro-6-hydroxy-4-methoxy-2-methylbenzoate]	effective	4.4 µM	effective	5.7 µM	34.7 µM	44.6 µM	20.7 µM	105.1 % of control	78.5 % of control	6.8 % of control	9.8 % of control	6.8 % of control	9.6 % of control	0.0018 µM	effective on HT-29 cells (HT-29): effective
Cc1c(Cl)c(O)cc(O)c1C(=O)O[C@@H]1C[C@]2(C)C3[C@@H](O)C(C)(C)C[C@@]3(O)C=C(C=O)[C@]12O (stereo partly drawn) [CH-205-Q, (2R,2aS,4aR,7R,7bR)-3-formyl-2,2a,4a,5,6,7,7a,7b-octahydro-2a,4a,7-trihydroxy-6,6,7b-trimethyl-1H-cyclobuta[e]inden-2-yl 3-chloro-4,6-dihydroxy-2-methyl benzoate]		> 100 µM		> 100 µM	> 100 µM	> 100 µM		104.7 % of control	98.9 % of control	105.5 % of control	108.6 % of control	100.2 % of control	74.1 % of control		IC50 [1]: > 500 µM; IC50 (endothelial cells (ECs)): 0.001 µM
N.N.[Cl][Pt][Cl] [cisplatin, reference compound]															Tumor growth inhibition ratio (TGI) ([3]; CH-205-K study, positive control 5 mg/kg (fifth value of the sentence)): 77.78%; Tumor growth inhibition ratio (TGI) ([3]; CH-205-O study, positive control 5 mg/kg): 82%
